Assay results: patent publication US12622917B2, “High-activity Wnt pathway inhibitor compound” (ADLAI NORTYE BIOPHARMA CO., LTD., priority 2020, dated 2026)
Like-named read-outs stand apart in the source and are kept apart here.

Columns and labels:
[1] = tested on: Hela; assay: Proliferation inhibition, non-Wnt mutant control cell line Hela; type: cell-based; conditions: Wnt-independent control cell line, 96 hours, read-out: Antiproliferative IC50 Hela
From the text: The cell lines used in the experiment are Colo205 and DU4475 cell lines whose Wnt pathway is continuously activated and whose proliferation is Wnt pathway-dependent; while the BELA and RKO cell lines, whose Wnt pathway is not activated under normal circumstances and the proliferation is independent of Wnt pathway, as control cell lines. It is Judged that the inhibitory effect of the compound of the present invention on Wnt-dependent proliferation is not caused by other non-specific toxicity.
Treat the Colo205, Du4475, HELA and RKO cell lines cultured in their respective mediums in the logarithmic growth phase, collect the cells and prepare a uniform cell suspension of known concentration, and then add it to the 96-well cell culture plate Cell suspension, so that each well contains 1000 cells. Put it into a 5% CO2 incubator and incubate at 37° C. for 20-24 h. On the second day, the fully dissolved, 3-fold serially diluted compound was added to each cell culture well, so that the final maximum concentration in the cell culture well was 20 uM, and the culture was continued for 96 hours. In this test, Promega's cell viability detection test is used for detection. The more the cells proliferate, the stronger the final signal intensity will be. The detection instrument is SpectraMax, full wavelength mode. The wells only added with DMSO were used as positive control wells, and the wells that were not inoculated with cells were used as negative control wells. […] The IC50 value of cell proliferation inhibition was used to evaluate the inhibitory effect of the compound on the Wnt pathway and the toxic effect on normal cells (Table 2).

[2] = tested on: Colo205-LUC-TCF/LEF M1 reporter cell line (Wnt pathway); assay: Colo205-LUC-TCF/LEF M1 reporter gene (luciferase) inhibition; type: cell-based; conditions: 4 hours incubation, luciferase readout
Method in brief: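 Luminescent readout of TCF/LEF-regulated luciferase after a 4 h, 37° C compound exposure in a stable Colo205 reporter clone (10,000 cells/well). Serial 3-fold dilutions started at 20 uM; IC50 derived using DMSO-treated cells and no-cell wells as controls.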

[3] = tested on: RKO; assay: Proliferation inhibition, non-Wnt mutant control cell line RKO; type: cell-based; conditions: Wnt-independent control cell line, 96 hours, read-out: Antiproliferative IC50 RKO
Method in brief: (§1)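 Read-out is a Promega cell viability signal that rises with proliferation, taken after 96 hours of compound treatment. Compound was dosed as a 3-fold dilution series up to 20 uM final, one day after plating 1000 log-phase cells per well; IC50 is calculated against DMSO and no-cell controls.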

[4] = tested on: HepG2; assay: Proliferation inhibition, HepG2 cell line; type: cell-based; conditions: Homo sapiens; HepG2 cells, 96 hours culture, cell viability detection; read-out: Antiproliferative IC50 HepG2
Method in brief: (§2)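 Wnt-dependent proliferation in HepG2 and NCI-H929 cells, seeded at 4000 cells/well and pre-incubated 20-24 h at 37 °C. Cells were then exposed for 96 h to 3-fold serial dilutions (top final concentration 20 uM), and viability was read by signal intensity. IC50 was referenced to DMSO-only wells and cell-free wells.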

[5] = tested on: DU4475; assay: Proliferation inhibition, Wnt mutant cell line DU4475; type: cell-based; conditions: DU4475, Wnt pathway-dependent, 96 hours, read-out: Antiproliferative IC50 DU4475
Method in brief: as §1

[6] = tested on: Colo205; assay: Proliferation inhibition, Wnt mutant cell line Colo205; type: cell-based; conditions: Colo205, Wnt pathway-dependent, 96 hours, read-out: Antiproliferative IC50 Colo205
Method in brief: as §1

[7] = tested on: NCI-H929; assay: Proliferation inhibition, NCI-H929 cell line; type: cell-based, human; conditions: Homo sapiens; NCI-H929 cells, 96 hours culture, cell viability detection; read-out: Antiproliferative IC50 NCI-H929
Method in brief: as §2

IC50 ([1]; Homo sapiens)	IC50 [2]	IC50 [4]	IC50 ([6]; Homo sapiens, COLO 205)	IC50 [7]	IC50 [1]	IC50 [6]	Compound	IC50 ([3]; Homo sapiens)	IC50 ([5]; Homo sapiens, DU-4475)	IC50 [3]	IC50 [5]
> 10000 nM	12 nM	4.4 nM	8.2 nM	–	–	–	COC[C@H]1Cn2ccc3nc(NCc4cnn(Cc5ccc(C(F)(F)F)nc5)c4)nc(c32)N1C [68 (W49)]	> 10000 nM	12.8 nM	–	–
> 10000 nM	10 nM	9.3 nM	24.6 nM	–	–	–	C[C@H]1Cn2ccc3nc(NCc4cnn(CC(F)(F)F)c4)nc(c32)N1C [80 (W104)]	> 10000 nM	27.5 nM	–	–
1440 nM	6 nM	1 nM	12.4 nM	–	–	–	C[C@H]1Cn2ccc3nc(NCc4ccc(OCC(F)(F)F)nc4)nc(c32)N1C [82 (W107)]	1830 nM	11 nM	–	–
> 10000 nM	28 nM	35 nM	31 nM	65 nM	–	–	C[C@H]1C(=O)N2CCCc3nc(NCc4ccc(Oc5cnc(C(F)(F)F)nc5)nc4)nc(c32)N1C [91 (W221)]	> 10000 nM	24 nM	–	–
> 10000 nM	31 nM	44 nM	21 nM	45 nM	–	–	[2H]C([2H])([2H])N1c2nc(NCc3ccc(Oc4ccc(C(F)(F)F)nc4)nc3)nc3c2N(CCC3)C(=O)[C@@H]1C [105 (W199)]	> 10000 nM	31 nM	–	–
> 10000 nM	13 nM	–	9 nM	–	–	–	[2H]C1([2H])[C@H](COC)N(C)c2nc(NCc3cnn(Cc4ccc(C(F)(F)F)nc4)c3)nc3ccn1c23 [Example 24, (R)-5-(methoxymethyl)-4-methyl-N-((1-((6-(trifluoromethyl)pyridin-3-yl)methyl)-1H-pyrazole-4-yl)methyl)-5,6-dihydro-4H-pyrrolo[3,2,1-de]pteridin-6,6-d2-2-amine]	> 10000 nM	9.7 nM	–	–
> 10000 nM	19 nM	–	44 nM	–	–	–	COC[C@H]1CN(C)c2nc(NCc3cnn(Cc4ccc(C(F)(F)F)nc4)c3)nc3cc(C)n1c23 [Example 25, (R)-6-(methoxymethyl)-4,8-dimethyl-N-((1-((6-(trifluoromethyl)pyridin-3-yl)methyl)-1H-pyrazol-4-yl)methyl)-5,6-dihydro-4H-pyrrolo[3,2,1-de]pteridin-2-amine]	> 10000 nM	50 nM	–	–
> 10000 nM	19 nM	–	35 nM	–	–	–	CN1CC(F)(F)Cn2ccc3nc(NCc4cnn(Cc5ccc(C(F)(F)F)nc5)c4)nc1c32 [Example 26, 8,8-difluoro-6-methyl-N-((1-((6-(trifluoromethyl)pyridin-3-yl)methyl)-1H-pyrazol-4-yl)methyl)-6,7,8,9-tetrahydro-3,5,6,9a-tetraazabenzo[cd]azulene-4-amine]	> 10000 nM	28 nM	–	–
> 10000 nM	26 nM	–	76 nM	–	–	–	C[C@@H]1CN(C)c2nc(NCc3cnn(Cc4ccc(C(F)(F)F)nc4)c3)nc3ccn1c23 [Example 27, (R)-4,6-dimethyl-N-((1-((6-(trifluoromethyl)pyridin-3-yl)methyl)-1H-pyrazol-4-yl)methyl)-5,6-dihydro-4H-pyrrolo[3,2,1-de]pteridin-2-amine]	4430 nM	37 nM	–	–
> 10000 nM	27 nM	–	29 nM	–	–	–	FC(F)(F)c1ccc(Cn2cc(CNc3nc4c5c(ccn5C[C@@H]5COCCN45)n3)cn2)cn1 [Example 28, (R)—N-((1-((6-(trifluoromethyl)pyridin-3-yl)methyl)-1H-pyrazol-4-yl)methyl)-7a,8,10,11-tetrahydro-7H-[1,4]oxazino[3,4-h]pyrrolo[3,2,1-de]pteridin-2-amine]	> 10000 nM	34 nM	–	–
–	57 nM	–	–	–	> 10000 nM	46 nM	(S)-6,7-dimethyl-4-(((1-((6-(trifluoromethyl)pyridin-3-yl)methyl)-1H-pyrazol-4-yl)methyl)amino)-7,8-dihydro-3,5,6,9a-tetraazabenzo[cd]azulene-9(6H)-one [Example 6]	–	–	> 10000 nM	59 nM
